Test results published in US20160222021A1, “ARYL ETHER-BASE KINASE INHIBITORS” (BRISTOL-MYERS SQUIBB COMPANY, priority 2013, published 2016).

Target: T1, GST-Xa-hAAK1 (Homo sapiens, UniProt Q2M2I8)
T1 construct: made in house
Experiment: AAK1 Kinase Assay
Format: biochemical
Conditions: ATP 22 μM
Experimental: The assays were performed in U-bottom 384-well plates. The final assay volume was 30 μl prepared from 15 μl additions of enzyme and substrates (fluoresceinated peptide (5-FAM)-Aha-[…]-NH2 and ATP) and test compounds in assay buffer (10 mM Tris-HCL pH 7.4, 10 mM MgCl2, 0.01% Tween-20 and 1.0 mM DTT). The reactions were initiated by the combination of bacterially expressed, GST-Xa-hAAK1 with substrates and test compounds. The reactions were incubated at room temperature for 3 hours and terminated by adding 60 μl of 35 mM EDTA buffer to each sample. The reactions were analyzed on the Caliper LabChip 3000 (Caliper, Hopkinton, Mass.) by electrophoretic separation of the fluorescent substrate and phosphorylated product. […] The final concentration of reagents in the assays are ATP, 22 μM; (5-FAM)-Aha-[…]-NH2, 1.5 μM; GST-Xa-hAAK1, 3.5 nM; and DMSO, 1.6%. Dose response curves were generated to determine the concentration required inhibiting 50% of kinase activity (IC50). Compounds were dissolved at 10 mM in dimethylsulfoxide (DMSO) and evaluated at eleven concentrations. IC50 values were derived by non-linear regression analysis.

T1 sequence (Q2M2I8 whole entry): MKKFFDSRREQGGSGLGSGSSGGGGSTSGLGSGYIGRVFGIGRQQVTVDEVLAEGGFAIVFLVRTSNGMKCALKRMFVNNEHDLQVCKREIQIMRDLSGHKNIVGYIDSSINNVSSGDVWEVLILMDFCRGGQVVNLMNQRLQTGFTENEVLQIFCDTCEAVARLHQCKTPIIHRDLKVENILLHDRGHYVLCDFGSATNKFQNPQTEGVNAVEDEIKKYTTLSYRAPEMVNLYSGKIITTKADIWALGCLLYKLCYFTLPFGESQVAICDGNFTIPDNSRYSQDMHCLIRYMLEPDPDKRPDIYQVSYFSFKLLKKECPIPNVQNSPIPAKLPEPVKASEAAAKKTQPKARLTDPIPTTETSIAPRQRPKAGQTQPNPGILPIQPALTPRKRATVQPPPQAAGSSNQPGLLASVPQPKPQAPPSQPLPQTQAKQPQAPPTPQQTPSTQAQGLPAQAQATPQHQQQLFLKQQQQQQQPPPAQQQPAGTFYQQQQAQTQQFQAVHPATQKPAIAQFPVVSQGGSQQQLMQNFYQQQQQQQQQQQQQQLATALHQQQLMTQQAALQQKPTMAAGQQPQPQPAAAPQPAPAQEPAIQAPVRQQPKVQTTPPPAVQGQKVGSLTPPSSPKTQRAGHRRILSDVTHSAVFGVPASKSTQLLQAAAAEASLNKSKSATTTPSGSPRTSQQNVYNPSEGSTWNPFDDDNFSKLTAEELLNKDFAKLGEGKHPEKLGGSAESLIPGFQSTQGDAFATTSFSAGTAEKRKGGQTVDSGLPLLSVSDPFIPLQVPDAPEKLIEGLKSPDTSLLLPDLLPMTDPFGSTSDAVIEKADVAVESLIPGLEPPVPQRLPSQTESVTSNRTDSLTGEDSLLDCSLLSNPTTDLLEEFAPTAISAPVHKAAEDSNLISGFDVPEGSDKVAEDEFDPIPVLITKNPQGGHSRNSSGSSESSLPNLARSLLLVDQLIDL

| SMILES | IC50 (IC50 ranges) [nM] | IC50 (numeric values) [nM] |
| --- | --- | --- |
| COC(=O)Nc1cc2c(cn1)COc1c-2ccc(OCC(C)(N)CC(C)C)c1OC (racemic) [Example 69, methyl (8-((2-amino-2,4-dimethylpentyl)oxy)-7-methoxy-5H-chromeno[3,4-c]pyridin-2-yl)carbamate] | < 1 | – |
| [2H]C([2H])(Oc1ccc2c(c1)OCc1cnc(NC(=O)OC)cc1-2)C(C)(N)CC(C)C (racemic) [Example 75, methyl (8-((2-amino-1,1-deutero-2,4-dimethylpentyl)oxy)-5H-chromeno[3,4-c]pyridin-2-yl)carbamate] | – | 2.3 |
| [2H]C([2H])(Oc1ccc2c(c1)OCc1cnc(NC(C)=O)cc1-2)C(C)(N)CC(C)C (racemic) [Example 78, N-(8-((2-amino-1,1-deutero-2,4-dimethylpentyl)oxy)-5H-chromeno[3,4-c]pyridin-2-yl)acetamide] | 1 to 10 | – |
| COC(=O)Nc1cc2c(cn1)COc1c-2ccc(OCC(C)(N)CC(C)C)c1C#N (racemic) [Example 79, methyl (8-((2-amino-2,4-dimethylpentyl)oxy)-7-cyano-5H-chromeno[3,4-c]pyridin-2-yl)carbamate] | < 1 | – |
| [2H]C([2H])(Oc1ccc2c(c1C#N)OCc1cnc(NC(=O)OC)cc1-2)C(C)(N)CC(C)C (racemic) [Example 94, methyl (8-((2-amino-1,1-deutero-2,4-dimethylpentyl)oxy)-7-cyano-5H-chromeno[3,4-c]pyridin-2-yl)carbamate] | < 1 | – |
| [2H]C([2H])(Oc1ccc2c(c1)OCc1cnc(NC(=O)OCC)cc1-2)C(C)(N)CC(C)C (racemic) [Example 96, ethyl (8-((2-amino-1,1-deutero-2,4-dimethylpentyl)oxy)-5H-chromeno[3,4-c]pyridin-2-yl)carbamate] | 1 to 10 | – |
| CC(C)C[C@H](N)COc1ccc2c(c1)OC(C1CC1)c1cnccc1-2 (single isomer, unassigned) [Example 8a] | 100 to 1200 | – |
| CC(C)C[C@@H](N)COc1ccc2c(c1)OC(C1CC1)c1cnccc1-2 (single isomer, unassigned) [Example 9a] | 100 to 1200 | – |
| CC(C)C[C@@H](N)COc1ccc2c(c1)OC(C1CC1)c1cnccc1-2 (single isomer, unassigned) [Example 9b] | 100 to 1200 | – |
| CC(C)C[C@H](N)COc1cc2c(cc1Cl)-c1ccncc1[C@H](C(F)(F)F)O2 (single isomer, unassigned) [Example 27a] | 1 to 10 | – |
| CC(C)C[C@H](N)COc1ccc2c(c1)OC(C(F)(F)F)c1cnccc1-2 (single isomer, unassigned; diastereomer 2) [Example 53] | 10 to 100 | – |
| N[C@@H](COc1ccc2c(c1)OCc1cnccc1-2)Cc1ccccc1 [Example 2, (R)-1-(5H-chromeno[3,4-c]pyridin-8-yloxy)-3-phenylpropan-2-amine] | 100 to 1200 | – |
| CC(C)C[C@@H](N)COc1ccc2c(c1)OC(C1CC1)c1cnccc1-2 (stereo partly drawn) [Example 9] | 100 to 1200 | – |
| CC(C)C[C@H](N)COc1cc2oc(=O)c3cnccc3c2cc1Br [Example 25, (S)-8-(2-amino-4-methylpentyloxy)-9-bromo-5H-chromeno[3,4-c]pyridin-5-one] | 1 to 10 | – |
| CC(=O)Nc1nccc2c1C(C)Oc1cc(OC[C@@H](N)CC(C)C)ccc1-2 (stereo partly drawn) [Example 47, N-(8-(((S)-2-amino-4-methylpentyl)oxy)-5-methyl-5H-chromeno[3,4-c]pyridin-4-yl)acetamide] | 100 to 1200 | – |
| CC(=O)Nc1nccc2c1C(C1CC1)Oc1cc(OC[C@@H](N)CC(C)C)ccc1-2 (stereo partly drawn) [Example 48, N-(8-(((S)-2-amino-4-methylpentyl)oxy)-5-cyclopropyl-5H-chromeno[3,4-c]pyridin-4-yl)acetamide] | – | 1200 |
| CC(C)C[C@H](N)COc1ccc2c(c1)OC(C(F)(F)F)c1cnccc1-2 (stereo partly drawn) [Example 49, (2S)-4-methyl-1-((5-(trifluoromethyl)-5H-chromeno[3,4-c]pyridin-8-yl)oxy)pentan-2-amine] | 10 to 100 | – |
| CC1Oc2cc(OC[C@@H](N)CC3CC3)ccc2-c2ccncc21 (stereo partly drawn) [Example 56, (2S)-1-cyclopropyl-3-((5-methyl-5H-chromeno[3,4-c]pyridin-8-yl)oxy)propan-2-amine] | – | 21 |
| COC(=O)Nc1cc2c(cn1)COc1c-2ccc(OC[C@@](C)(N)CC(C)C)c1C#N [Example 80, (S)-methyl (8-((2-amino-2,4-dimethylpentyl)oxy)-7-cyano-5H-chromeno[3,4-c]pyridin-2-yl)carbamate] | < 1 | – |
| COC(=O)Nc1cc2c(cn1)COc1cc(OC[C@@](C)(N)CC(C)C)c(Cl)cc1-2 [Example 83, (S)-methyl (8-((2-amino-2,4-dimethylpentyl)oxy)-9-chloro-5H-chromeno[3,4-c]pyridin-2-yl)carbamate] | 1 to 10 | – |
| COC(=O)Nc1cc2c(cn1)COc1c-2ccc(OC[C@@H](N)CC(C)C)c1C#N [Example 84, (S)-methyl (8-((2-amino-4-methylpentyl)oxy)-7-cyano-5H-chromeno[3,4-c]pyridin-2-yl)carbamate] | 1 to 10 | – |
| COc1c(OC[C@@](C)(N)CC(C)C)ccc2c1OCc1cnc(NC(C)=O)cc1-2 [Example 85, (S)—N-(8-((2-amino-2,4-dimethylpentyl)oxy)-7-methoxy-5H-chromeno[3,4-c]pyridin-2-yl)acetamide] | < 1 | – |
| COC(=O)Nc1cc2c(cn1)COc1c-2ccc(OC[C@@](C)(N)CC(C)C)c1OC [Example 86, (S)-methyl (8-((2-amino-2,4-dimethylpentyl)oxy)-7-methoxy-5H-chromeno[3,4-c]pyridin-2-yl)carbamate] | – | 0.39 |
| CC(=O)Nc1cc2c(cn1)COc1c-2ccc(OC[C@@](C)(N)CC(C)C)c1OC(F)F [Example 87, (S)—N-(8-((2-amino-2,4-dimethylpentyl)oxy)-7-(difluoromethoxy)-5H-chromeno[3,4-c]pyridin-2-yl)acetamide] | < 1 | – |
| CC(C)C[C@](C)(N)COc1ccc2c(c1Cl)OCc1cnc(N)cc1-2 [Example 88, (S)-8-((2-amino-2,4-dimethylpentyl)oxy)-7-chloro-5H-chromeno[3,4-c]pyridin-2-amine] | < 1 | – |

Other lines, results leading:

| IC50 (IC50 ranges) [nM] | IC50 (numeric values) [nM] | SMILES |
| --- | --- | --- |
| 1 to 10 | – | CC(C)CC(C)(N)COc1ccc2c(c1)OCc1cnc(N)cc1-2 (racemic) [Example 68, 8-((2-amino-2,4-dimethylpentyl)oxy)-5H-chromeno[3,4-c]pyridin-2-amine] |
| 100 to 1200 | – | CC[C@@H](N)COc1ccc2c(c1)OCc1cnccc1-2 [Example 3, (R)-1-(5H-chromeno[3,4-c]pyridin-8-yloxy)butan-2-amine] |
| 100 to 1200 | – | CC(C)C[C@H](N)COc1ccc2c(c1)OC1(COC1)c1cnccc1-2 [Example 19, (S)-4-methyl-1-(spiro[chromeno[3,4-c]pyridine-5,3′-oxetan]-8-yloxy)pentan-2-amine] |
| 100 to 1200 | – | Cc1cc2c(cn1)COc1cc(OC[C@@H](N)CC(C)C)ccc1-2 [Example 39, (S)-4-methyl-1-((2-methyl-5H-chromeno[3,4-c]pyridin-8-yl)oxy)pentan-2-amine] |
| – | 0.87 | CC(=O)Nc1cc2c(cn1)COc1cc(OC[C@@](C)(N)CC(C)C)ccc1-2 [Example 45, (S)—N-(8-((2-amino-2,4-dimethylpentyl)oxy)-5H-chromeno[3,4-c]pyridin-2-yl)acetamide] |
| – | 12 | CC(C)C[C@H](N)COc1ccc2c(c1)OC(C1CC1)c1c-2ccnc1N (stereo partly drawn) [Example 50, 8-(((S)-2-amino-4-methylpentyl)oxy)-5-cyclopropyl-5H-chromeno[3,4-c]pyridin-4-amine] |
| 10 to 100 | – | CC(C)C[C@H](N)COc1ccc2c(c1)OC(C(C)C)c1cnccc1-2 (stereo partly drawn) [Example 51, (2S)-1-((5-isopropyl-5H-chromeno[3,4-c]pyridin-8-yl)oxy)-4-methylpentan-2-amine] |
| – | 305 | CNc1nccc2c1COc1cc(OC[C@@H](N)CC(C)C)ccc1-2 [Example 54, (S)-8-((2-amino-4-methylpentyl)oxy)-N-methyl-5H-chromeno[3,4-c]pyridin-4-amine] |
| 10 to 100 | – | CC(C)C[C@H](N)COc1ccc2c(c1)OC(C(C)C)c1cnccc1-2 (stereo partly drawn) [Example 55, (2S)-1-((5-isopropyl-5H-chromeno[3,4-c]pyridin-8-yl)oxy)-4-methylpentan-2-amine] |
| 10 to 100 | – | CCNc1cc2c(cn1)COc1cc(OC[C@@H](N)CC(C)C)ccc1-2 [Example 58, (S)-8-((2-amino-4-methylpentyl)oxy)-N-ethyl-5H-chromeno[3,4-c]pyridin-2-amine] |
| 10 to 100 | – | CC(C)C[C@H](N)COc1ccc2c(c1)OCc1cnc(NC(=O)C(C)C)cc1-2 [Example 61, (S)—N-(8-((2-amino-4-methylpentyl)oxy)-5H-chromeno[3,4-c]pyridin-2-yl)isobutyramide] |
| 1 to 10 | – | CC(=O)Nc1cc2c(cn1)COc1cc(OC[C@@H](N)CC(C)C)cc(F)c1-2 [Example 62, (S)—N-(8-((2-amino-4-methylpentyl)oxy)-10-fluoro-5H-chromeno[3,4-c]pyridin-2-yl)acetamide] |
| 1 to 10 | – | CC(C)C[C@H](N)COc1cc2c(cc1Cl)-c1cc(N)ncc1CO2 [Example 71, (S)-8-((2-amino-4-methylpentyl)oxy)-9-chloro-5H-chromeno[3,4-c]pyridin-2-amine] |
| 100 to 1200 | – | CC(C)C[C@H](N)COc1ccc2c(c1)OCc1cnc(NC(=O)c3cc(F)cc(F)c3)cc1-2 [Example 72, (S)—N-(8-((2-amino-4-methylpentyl)oxy)-5H-chromeno[3,4-c]pyridin-2-yl)-3,5-difluorobenzamide] |
